How the values were obtained:
[1] = tested on: pre-BCR signaling in 697 cells; assay: Western blotting of pre-BCR tonic signaling (phospho-CD79a, phospho-Syk) with pervanadate; type: cell-based, human; details: for accumulation of phospho-Syk (Syk phosphorylation): in the presence of pervanadate, 30-minute treatment
Protocol: (§1) Results in FIG. 8 evaluate the ability of anti-VpreB Fabs, as well as inhibitors directed at pre-BCR downstream signaling partners Lyn, Syk and SHIP1 (INPP5D), to block tonic signaling from the pre-BCR.
(§2) After stated incubation +/− inhibitors or crosslinking agents, cells were washed with ice-cold PBS and held for 15 minutes on ice in Tris-based lysis buffer, with 1% NP-40 and protease and phosphatase inhibitors (ThermoFisher Scientific, Waltham, Mass.). For effects of inhibitors on BCL6 expression, treatments were carried out for 24 hours. Lysates were clarified by centrifugation at 14,000×g for 10 minutes at 4° C., then added to Laemmli's Reducing buffer. Proteins were separated on SDS-polyacrylamide and transferred to nitrocellulose membranes. After blocking with TBST (Sigma-Aldrich, St. Louis, Mo.) with 5% BSA (Sigma-Aldrich, St. Louis, Mo.), blots were probed with antibodies specific to pCD79a (Tyr 182) (Cell Signaling Technology, Inc., Danvers, Mass.), pSyk (Tyr348) (Novus Biologicals LLC, Littleton, Colo.), pSyk (Tyr 352) (Cell Signaling Technology, Inc., Danvers, Mass.) or BCL6 (Santa Cruz Biotechnology, Inc., Dallas, Tex.). Antibodies to β-Actin (Sigma-Aldrich, St. Louis, Mo.) were used as loading controls.
BCP-ALL cells were treated with pervanadate solution as previously described (Imbert et al., 1994, Biochem J297 (Pt 1):163-173; Smrz et al., 2008, J Biol Chem 283:10904-10918). Data in FIG. 8 are reported using a linear range normalization from 0 to 1.0, whereby tonic without pervanadate treatment response was set to 0 and tonic pervanadate treatment was set to 1.0: […]

697 cells = assay: flow cytometry apoptosis assay (Annexin-V / 7-AAD), 697 cells; type: cell-based, human; details: for apoptosis in cells treated with vincristine over a range of doses: inhibitor in combination with vincristine
Protocol: Since blocking pre-BCR pro-survival signaling may be advantageous for chemo-sensitization, one can compare apoptosis alone or in combination with a sub-lethal dose of a chemotherapeutic such as, for example, vincristine or daunorubicin.
Curves were fit using sigmoidal dose-response curve using MATLAB curve fitting toolbox (The MathWorks, Inc., Natick, Mass.).
Leukemia cell apoptosis was measured based upon binding to Annexin-V-FITC (BioLegend, Inc., San Diego, Calif.) and loss of cell viability measured by 7-AAD labeling (BioLegend, Inc., San Diego, Calif.), according to manufacturer's procedures. For receptor-binding experiments, cells were incubated under saturating conditions for 1.5 hours on ice in PBS with anti-CD79b-APC antibody (BioLegend, Inc., San Diego, Calif.) or anti-VpreB-PE antibody (BioLegend, Inc., San Diego, Calif.). […] (Bangs Laboratories, Inc., Fishers, Ind.) beads with anti-mouse Fc antibody according to manufacturer's instruction. Dissociation constants were estimated with nonlinear regression analysis under KD controlled conditions as described (Drake, A. W., and S. L. Klakamp, 2007, J Immunol Methods 318:147-152). All flow cytometry data collection was conducted on the […] platform (IntelliCyt Corp., Albuquerque, N. Mex.; Edwards et al., 2009, Methods Mol Biol 486:151-165) and analyzed with the FLOWJO Software Suite (FlowJo, LLC, Ashland, Oreg.).

pre-BCR on 697 cells [2] = target: T1, pre-BCR on 697 cells (Homo sapiens, UniProt P12018); assay: Single Particle Tracking of pre-BCR diffusion on 697 cells; type: cell-based; details: Fab 1 μM, galectin-1 10 μM; for overall diffusion (mobility) of pre-BCR: relative to tonic signaling, inhibitors 1 μM
T1 construct: endogenous in cells; host or cells: 697 (BCP-ALL cell line)
T1 sequence (P12018 20-145): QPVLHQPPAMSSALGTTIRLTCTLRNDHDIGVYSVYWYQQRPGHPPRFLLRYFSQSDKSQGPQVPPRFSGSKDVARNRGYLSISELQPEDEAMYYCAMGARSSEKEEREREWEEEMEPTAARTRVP
Protocol: Data are reported as changed in ensemble diffusion coefficients (MSD) for pre-BCR plus and minus saturating levels of anti-VpreB1 Fabs (1 μM). In these experiments, Fabs were added to 697 cells for 15 minutes at 37° C. prior to performing Single Particle Tracking (SPT).
Suspension cultures of BCP-ALL cell lines (697, Nalm6) were grown in RPMI 1640 with phenol red (Sigma-Aldrich, St. Louis, Mo.), with 10% (v/v) HI FBS, 1% Penicillin/Streptomycin (Gibco, Gaithersburg, Md.), and L-Glutamine 2 mM. Patient samples were cultured in IMDM, GlutaMAX medium (Gibco, Gaithersburg, Md.) supplemented with 20% (v/v) HI FBS, 1% penicillin/streptomycin, 1× insulin, transferrin and selenium (Gibco, Gaithersburg, Md.), 1 mM sodium pyruvate (Gibco, Gaithersburg, Md.), and 55 μM 2-Mercaptoethanol (Gibco, Gaithersburg, Md.). Prior to experiments, cells were washed twice with Tyrode's solution (Sigma-Aldrich, St. Louis, Mo.). Unless otherwise stated, cells were pretreated for 10 minutes with Bay-61-3606 (Santa Cruz Biotechnology, Inc., Dallas, Tex.; 1 μM), dasatinib (Santa Cruz Biotechnology, Inc., Dallas, Tex.; 1 μM), tofacitinib (Selleck Chemicals LLC, Houston, Tex.; 1 μM), anti-VpreB Fab (1 μM), 3AC (Echelon Biosciences, Inc., Salt Lake City, Utah), and/or recombinant galectin-1 (PreproTech, Inc., Rocky Hill, N.J.; 10 μM), +/− lactose.
LAB-TEK imaging chambers (ThermoFisher Scientific, Waltham, Mass.) were coated with poly-1-lysine hydrobromide (Sigma-Aldrich, St. Louis, Mo.) at 1 mg/ml in sterile water for 20 minutes at room temperature, followed by three washes. BCP-ALL cells were serum-starved in RPMI 1640 without FBS for two hours prior to being added to coated wells and incubated for 15 minutes at 37° C. QD-Fab-CD79b or QD-Fab-IgM were added at 100 pM in Tyrodes's solution (Sigma-Aldrich, St. Louis, Mo.) with 0.1% (w/v) BSA and 20 mM glucose for 10-15 minutes at 37° C.
All corresponding GPU single particle tracking and track elongation, squared displacement, mean square displacement, correlated motion, fiducial data acquisition and image registration and three-state hidden Markov Model used in this study have been described in detail previously (Low-Nam et al, 2011, Nat Struct Mol Biol 18:1244-1249).

[3] = tested on: BCL6 levels in patient #280 cells; assay: Western blotting of BCL6 levels in patient #280 cells; type: cell-based, human; details: 24 hours
Protocol: FIG. 14. Data showing that pre-BCR signaling contributes to survival of some BCP-ALL blasts. Data are shown for patient #280. A) Increase in apoptosis (Annexin labeling) and loss of cell viability (7AAD labeling) after prolonged incubation with dasatinib (10 μM) alone or in combination with vincristine over doses of 0.1 ng/ml to 100 ng/ml. B) Increase in apoptosis after 24-hour incubation of #280 patient cells with α-VpreB Fab (5 μM) alone or in combination with low dose vincristine (10 ng/ml).
After stated incubation +/− inhibitors or crosslinking agents, cells were washed with ice-cold PBS and held for 15 minutes on ice in Tris-based lysis buffer, with 1% NP-40 and protease and phosphatase inhibitors (ThermoFisher Scientific, Waltham, Mass.). For effects of inhibitors on BCL6 expression, treatments were carried out for 24 hours. Lysates were clarified by centrifugation at 14,000×g for 10 minutes at 4° C., then added to Laemmli's Reducing buffer. Proteins were separated on SDS-polyacrylamide and transferred to nitrocellulose membranes. […]

[4] = tested on: BCL6 expression in 697 cells; assay: Western blotting of BCL6 expression in 697 cells; type: cell-based, human; details: overnight (24 hours) treatment
Protocol: as §1, §2

pre-BCR on 697 cells [5] = target: T2, pre-BCR on 697 cells (Homo sapiens, UniProt P12018+P15814); assay: fluorescence imaging of pre-BCR clustering by labeled galectin-1; type: cell-based; details: Alexa 555-conjugated galectin-1 10 μM, within five minutes
T2 construct: endogenous in cells; host or cells: 697 (BCP-ALL cell line)
T2 sequence (P15814 38-213, one chain of several): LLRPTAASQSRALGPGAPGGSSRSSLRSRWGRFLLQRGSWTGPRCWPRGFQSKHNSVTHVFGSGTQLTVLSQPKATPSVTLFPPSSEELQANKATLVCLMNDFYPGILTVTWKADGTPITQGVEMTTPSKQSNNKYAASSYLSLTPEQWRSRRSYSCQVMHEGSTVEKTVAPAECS

[6] = tested on: patient #280 BCP-ALL blasts; assay: flow cytometry apoptosis assay (Annexin-V / 7-AAD), patient #280 cells; type: cell-based, human; details: patient #280 blasts, single agent, 24-hour culture (dasatinib 10 μM)
Protocol: Blockade of pre-BCR homotypic self-association can sensitize patient cells to vincristine. […] Blasts from patient #280 also were very sensitive to dasatinib as a single agent (80% 7-AAD/Annexin-V positive after 24-hour culture). Longer incubations were not feasible, since cells from this patient were 40% 7-AAD positive when incubated with no drug or in the presence of vincristine up to 5 ng/ml.
Leukemia cell apoptosis was measured based upon binding to Annexin-V-FITC (BioLegend, Inc., San Diego, Calif.) and loss of cell viability measured by 7-AAD labeling (BioLegend, Inc., San Diego, Calif.), according to manufacturer's procedures. For receptor-binding experiments, cells were incubated under saturating conditions for 1.5 hours on ice in PBS with anti-CD79b-APC antibody (BioLegend, Inc., San Diego, Calif.) or anti-VpreB-PE antibody (BioLegend, Inc., San Diego, Calif.). Flow results were calibrated using QUANTUM SIMPLY CELLULAR (Bangs Laboratories, Inc., Fishers, Ind.) beads with anti-mouse Fc antibody according to manufacturer's instruction. […] All flow cytometry data collection was conducted on the HYPERCYT platform (IntelliCyt Corp., Albuquerque, N. Mex.; Edwards et al., 2009, Methods Mol Biol 486:151-165) and analyzed with the FLOWJO Software Suite (FlowJo, LLC, Ashland, Oreg.).

overall diffusion (mobility) of pre-BCR (pre-BCR on 697 cells [2])	Compound	apoptosis in cells treated with vincristine over a range of doses (697 cells)	accumulation of phospho-Syk (Syk phosphorylation) [1]	BCL6 expression [4]	also measured
overall increased mobility	COc1ccc(-c2cc3nccn3c(Nc3ncccc3C(N)=O)n2)cc1OC [Bay-61-3606]	potentiate apoptosis	–	–	diminished accumulation of Syk PY352 ([1]; pervanadate-treated): approximately 20%
–	CC(C)CCC[C@@H](C)[C@H]1CC[C@H]2[C@@H]3CC[C@H]4C[C@H](N)CC[C@]4(C)[C@H]3CC[C@]12C [3AC, 3-a-aminocholestane]	potentiate apoptosis	slightly elevated	completely repressed	BCL6 levels [3]: marked decline
far less mobile	galectin-1: recombinant human galectin-1, crosslinks pre-BCR via surrogate light chain	–	–	–	immobile fraction of pre-BCR (D<0.05 μm^2/sec) (pre-BCR on 697 cells [2]): A large fraction of pre-BCR become essentially immobile; clustering of the pre-BCR (pre-BCR on 697 cells [5]): marked clustering of the pre-BCR
–	Cc1nc(Nc2ncc(C(=O)Nc3c(C)cccc3Cl)s2)cc(N2CCN(CCO)CC2)n1 [dasatinib]	–	–	–	7-AAD/Annexin-V positive [6]: 80%
–	CC[C@]1(O)C[C@H]2CN(CCc3c([nH]c4ccccc34)[C@@](C(=O)OC)(c3cc4c(cc3OC)N(C=O)[C@H]3[C@@](O)(C(=O)OC)[C@H](OC(C)=O)[C@]5(CC)C=CCN6CC[C@]43[C@@H]65)C2)C1 [vincristine]	–	–	–	apoptotic cells (697 cells; vincristine 10 ng/ml, with or without VpreB Fabs (5 μM)): 69.9%

Compound	overall diffusion (mobility) of pre-BCR (pre-BCR on 697 cells [2])	apoptosis in cells treated with vincristine over a range of doses (697 cells)	accumulation of phospho-Syk (Syk phosphorylation) [1]	BCL6 expression [4]	also measured
C[C@@H]1CCN(C(=O)CC#N)C[C@@H]1N(C)c1ncnc2[nH]ccc12 [tofacitinib]	not Jak (tofacitinib) results in a global increase	potentiate apoptosis	did not alter	elevated levels	–

— patent publication US10988533B2, “Anti-pre-BCR antagonists and methods” (STC.UNM, priority 2015, dated 2021)
